Assay results taken from patent US9944645B2, “Imidazotriazines and imidazopyrimidines as kinase inhibitors” (Incyte Holdings Corporation, priority 2006, dated 2018).

The molecules below were run against c-Met kinase (h-Met; histidine-tagged c-Met catalytic domain fusion protein) (Homo sapiens (Human), UniProt P08581) (assay: In Vitro c-Met Kinase Enzyme Assays). Details: phosphorylation of poly Glu-Tyr, 5 μM ATP, 25 minutes at 30° C.
Assay type: biochemical
Procedure, shortened: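 His-tagged c-Met catalytic domain reacted 25 min at 30° C, within the linear initial-rate range. Phosphotyrosine detected by ELISA with peroxidase-labeled anti-phospho-tyrosine antibody and TMB, OD read at 450 nm (540 nm correction); IC50 from curve fit.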

c-Met kinase (h-Met; histidine-tagged c-Met catalytic domain fusion protein), sequence (P08581 1078-1345): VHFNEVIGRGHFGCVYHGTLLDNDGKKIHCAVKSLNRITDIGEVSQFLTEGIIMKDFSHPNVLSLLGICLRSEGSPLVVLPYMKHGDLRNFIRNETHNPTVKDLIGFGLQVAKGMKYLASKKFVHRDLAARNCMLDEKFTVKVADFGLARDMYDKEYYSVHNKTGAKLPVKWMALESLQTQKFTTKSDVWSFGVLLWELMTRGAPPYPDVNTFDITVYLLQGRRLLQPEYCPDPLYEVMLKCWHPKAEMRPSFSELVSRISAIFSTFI

IC50, < 0.5 µM:
CN(C(=O)c1ccc(-c2cnc3ncc(C4(c5ccc6ncccc6c5)CC4)n3c2)cc1)C1CCN(Cc2ccccc2)C1 (stereo not shown) [Example 32, N-(1-Benzylpyrrolidin-3-yl)-N-methyl-4-[3-(1-quinolin-6-ylcyclopropyl)imidazo[1,2-a]pyrimidin-6-yl]benzamide]
CNC(=O)c1ccc(-c2cnc3ncc(Sc4ccc5ncccc5c4)n3c2)cc1F [Example 11, 2-Fluoro-N-methyl-4-[3-(quinolin-6-ylthio)imidazo[1,2-a]pyrimidin-6-yl]benzamide]
O=C(NC1CC1)c1ccc(-c2cnc3ncc(C4(c5ccc6ncccc6c5)CC4)n3c2)cc1Cl [Example 175, 2-Chloro-N-cyclopropyl-4-[3-(1-quinolin-6-ylcyclopropyl)imidazo[1,2-a]pyrimidin-6-yl]benzamide]
CNC(=O)[C@@H](NC(=O)c1ccc(-c2cnc3ncc(C4(c5ccc6ncccc6c5)CC4)n3c2)cn1)C(C)(C)C [Example 59, N-(1S)-2,2-Dimethyl-1-[(methylamino)carbonyl]propyl-5-[3-(1-quinolin-6-ylcyclopropyl)imidazo[1,2-a]pyrimidin-6-yl]pyridine-2-carboxamide]
CNC(=O)c1ccc(-c2cnc3ncc(Oc4ccc5ncccc5c4)n3c2)cc1Cl [Example 17, 2-chloro-N-methyl-4-[3-(quinolin-6-yloxy)imidazo[1,2-a]pyrimidin-6-yl]benzamide]
O=C1OCCN1c1ccc(-c2cnc3ncc(Cc4ccc5ncccc5c4)n3n2)cc1F [Example 130, 3-{2-Fluoro-4-[7-(quinolin-6-ylmethyl)imidazo[1,2-b][1,2,4]triazin-2-yl]phenyl}-1,3-oxazolidin-2-one]
COc1ccc(C2(c3cnc4ncc(-c5ccc(F)cc5)nn34)CC2)cc1 [Example 2, 2-(4-Fluorophenyl)-7-[1-(4-methoxyphenyl)cyclopropyl]imidazo[1,2-b]-[1,2,4]-triazine]
CC(C)(CO)NC(=O)c1ccc(-c2cnc3ncc(C4(c5ccc6ncccc6c5)CC4)n3n2)cc1 [Example 110, N-(2-Hydroxy-1,1-dimethylethyl)-4-[7-(1-quinolin-6-ylcyclopropyl)imidazo[1,2-b][1,2,4]triazin-2-yl]benzamide]
c1cnc2ccc(C3(c4cnc5ncc(-c6ccc(-c7cncnc7)cc6)nn45)CC3)cc2c1 [Example 95, 6-{1-[2(4-Pyrimidin-5-yl-phenyl)imidazo[1,2-b][1,2,4]triazin-7-yl]cyclopropyl}quinoline]
CNC(=O)c1ccc(-c2cnc3ncc(C4(c5ccc6ncccc6c5)CC4)n3c2)c(F)c1 [Example 75, 3-Fluoro-N-methyl-4-[3-(1-quinolin-6-ylcyclopropyl)imidazo[1,2-a]pyrimidin-6-yl]benzamide]
O=C(NCC1(O)CC1)c1ccc(-c2cnc3ncc(Cc4ccc5ncccc5c4)n3n2)cc1F [Example 202, 2-Fluoro-N-[(1-hydroxycyclopropyl)methyl]-4-[7-(quinolin-6-ylmethyl)imidazo[1,2-b][1,2,4]triazin-2-yl]benzamide]
CC(=O)N1CCC(CC#N)(n2cc(-c3cnc4ncc(Cc5ccc6ncccc6c5)n4n3)cn2)CC1 [Example 205, (1-Acetyl-4-{4-[7-(quinolin-6-ylmethyl)imidazo[1,2-b][1,2,4]triazin-2-yl]-1H-pyrazol-1-yl}piperidin-4-yl)acetonitrile]
O=C(COc1ccc(-c2cnc3ncc(C4(c5ccc6ncccc6c5)CC4)n3c2)cc1)N1CCCC1 [Example 63, 6-(1-{6-[4-(2-Oxo-2-pyrrolidin-1-ylethoxy)phenyl]imidazo[1,2-a]pyrimidin-3-yl}cyclopropyl)quinoline]
CN(C)C(=O)c1ccc(-c2cnc3ncc(C4(c5ccc6ncccc6c5)CC4)n3c2)cc1 [Example 30, N,N-Dimethyl-4-[3-(1-quinolin-6-ylcyclopropyl)imidazo[1,2-a]pyrimidin-6-yl]benzamide]
Cc1csc(C(C)NC(=O)c2cnn(-c3cnc4ncc(C5(c6ccc7ncccc7c6)CC5)n4c3)c2)n1 (stereo not shown) [Example 25, N-[1-(4-Methyl-1,3-thiazol-2-yl)ethyl]-1-[3-(1-quinolin-6-ylcyclopropyl)imidazo[1,2-a]pyrimidin-6-yl]-1H-pyrazole-4-carboxamide]
COC(=O)c1ccc(-c2cnc3ncc(Sc4ccc5ncccc5c4)n3n2)cc1F [Example 13, Methyl 2-fluoro-4-[7-(quinolin-6-ylthio)imidazo[1,2-b][1,2,3]triazin-2-yl]benzoate]
O=C(NCC1CCCO1)c1ccc(-c2cnc3ncc(C4(c5ccc6ncccc6c5)CC4)n3n2)cc1 (stereo not shown) [Example 105, 4-[7-(1-Quinolin-6-ylcyclopropyl)imidazo[1,2-b][1,2,4]triazin-2-yl]-N-(tetrahydrofuran-2-ylmethyl)benzamide]
Nc1nc2ncc(C3(c4ccc5ncccc5c4)CC3)n2nc1-c1cccc(Cl)c1Cl [Example 193, 2-(2,3-Dichlorophenyl)-7-(1-quinolin-6-ylcyclopropyl)imidazo[1,2-b][1,2,4]triazin-3-amine]
CC(C)(C)[C@H](NC(=O)c1ccc(-c2cnc3ncc(C4(c5ccc6ncccc6c5)CC4)n3c2)cc1)C(=O)N1CCC1 [Example 45, N-[(1S)-1-(Azetidin-1-ylcarbonyl)-2,2-dimethylpropyl]-4-[3-(1-quinolin-6-ylcyclopropyl)imidazo[1,2-a]pyrimidin-6-yl]benzamide]
CNC(=O)c1ccc(-c2cnc3ncc(C4(c5ccc6ncccc6c5)CC4)n3c2)c(F)c1F [Example 194, 2,3-Difluoro-N-methyl-4-[3-(1-quinolin-6-ylcyclopropyl)imidazo[1,2-a]pyrimidin-6-yl]benzamide]
CC(COc1ccccn1)NC(=O)c1ccc(-c2cnc3ncc(C4(c5ccc6ncccc6c5)CC4)n3c2)cc1Cl (stereo not shown) [Example 180, 2-Chloro-N-[1-methyl-2-(pyridin-2-yloxy)ethyl]-4-[3-(1-quinolin-6-ylcyclopropyl)imidazo[1,2-a]pyrimidin-6-yl]benzamide]
CNC(=O)[C@@H](CC(C)C)NC(=O)c1ccc(-c2cnc3ncc(Cc4ccc5ncccc5c4)n3n2)cc1F [Example 135, 2-Fluoro-N-{(1R)-3-methyl-1-[(methylamino)carbonyl]butyl}-4-[7-(quinolin-6-ylmethyl)imidazo[1,2-b][1,2,4]triazin-2-yl]benzamide]
CS(=O)(=O)N1CC=C(c2ccc(-c3cnc4ncc(C5(c6ccc7ncccc7c6)CC5)n4n3)cc2)CC1 [Example 97, 6-[1-(2-{4-[1-(Methylsulfonyl)-1,2,3,6-tetrahydropyridin-4-yl]phenyl}imidazo[1,2-b][1,2,4]triazin-7-yl)cyclopropyl]quinoline]
O=C(NC1CCN(c2ccccn2)C1)c1ccc(-c2cnc3ncc(C4(c5ccc6ncccc6c5)CC4)n3c2)cc1 (stereo not shown) [Example 37, N-(1-Pyridin-2-ylpyrrolidin-3-yl)-4-[3-(1-quinolin-6-ylcyclopropyl)imidazo[1,2-a]pyrimidin-6-yl]benzamide]
O=C(NCc1ccccn1)c1ccc(-c2cnc3ncc(Cc4ccc5ncccc5c4)n3n2)cc1F [Example 151, 2-Fluoro-N-(pyridin-2-ylmethyl)-4-[7-(quinolin-6-ylmethyl)imidazo[1,2-b][1,2,4]triazin-2-yl]benzamide]
CNC(=O)c1cc(F)c(-c2cnc3ncc(C4(c5ccc6ncccc6c5)CC4)n3c2)cc1F [Example 77, 2,5-Difluoro-N-methyl-4-[3-(1-quinolin-6-ylcyclopropyl)imidazo[1,2-a]pyrimidin-6-yl]benzamide]
CC(c1ccc2ncccc2c1)c1cnc2ncc(-c3ccc(C(=O)NC4CC4)c(F)c3)nn12 (stereo not shown) [Example 161, N-Cyclopropyl-2-fluoro-4-[7-(1-quinolin-6-ylethyl)imidazo[1,2-b][1,2,4]triazin-2-yl]benzamide]
C[C@@H](NC(=O)c1ccc(-c2cnc3ncc(C4(c5ccc6ncccc6c5)CC4)n3c2)cn1)C(=O)N(C)C [Example 62, N-[(1R)-2-(Dimethylamino)-1-methyl-2-oxoethyl]-5-[3-(1-quinolin-6-ylcyclopropyl)imidazo[1,2-a]pyrimidin-6-yl]pyridine-2-carboxamide]
CC(C)[C@H](NC(=O)c1ccc(-c2cnc3ncc(C4(c5ccc6ncccc6c5)CC4)n3c2)cc1)C(=O)N(C)C [Example 56, N-(1S)-1-[(Dimethylamino)carbonyl]-2-methylpropyl-4-[3-(1-quinolin-6-ylcyclopropyl)imidazo[1,2-a]pyrimidin-6-yl]benzamide]
COCC1(NC(=O)c2ccc(-c3cnc4ncc(Cc5ccc6ncccc6c5)n4n3)cc2F)CC1 [Example 124, 2-Fluoro-N-[1-(methoxymethyl)cyclopropyl]-4-[7-(quinolin-6-ylmethyl)imidazo[1,2-b][1,2,4]triazin-2-yl]benzamide]
CC(NC(=O)c1ccc(-c2cnc3ncc(C4(c5ccc6ncccc6c5)CC4)n3c2)cc1)c1ccccn1 (stereo not shown) [Example 34, N-(1-Pyridin-2-ylethyl)-4-[3-(1-quinolin-6-ylcyclopropyl)imidazo[1,2-a]pyrimidin-6-yl]benzamide]
O=C(NCc1ccccn1)c1cccc(-c2cnc3ncc(C4(c5ccc6ncccc6c5)CC4)n3c2)c1 [Example 47, N-(Pyridin-2-ylmethyl)-3-[3-(1-quinolin-6-ylcyclopropyl)imidazo[1,2-a]pyrimidin-6-yl]benzamide]
O=C(NC1CC1)c1ccc(-c2cnc3ncc(C4(c5ccc6ncccc6c5)CC4)n3n2)cc1 [Example 107]
CN(C)C(=O)N1CCN(c2ccc(-c3cnc4ncc(C5(c6ccc7ncccc7c6)CC5)n4c3)cn2)CC1 [Example 55, N,N-Dimethyl-4-{5-[3-(1-quinolin-6-ylcyclopropyl)imidazo[1,2-a]pyrimidin-6-yl]pyridin-2-yl}piperazine-1-carboxamide]
